Data set [1] concerns the target T1, NAD-dependent protein deacetylase sirtuin-1 (Homo sapiens, UniProt Q96EB6).
T1 sequence (Q96EB6 whole entry): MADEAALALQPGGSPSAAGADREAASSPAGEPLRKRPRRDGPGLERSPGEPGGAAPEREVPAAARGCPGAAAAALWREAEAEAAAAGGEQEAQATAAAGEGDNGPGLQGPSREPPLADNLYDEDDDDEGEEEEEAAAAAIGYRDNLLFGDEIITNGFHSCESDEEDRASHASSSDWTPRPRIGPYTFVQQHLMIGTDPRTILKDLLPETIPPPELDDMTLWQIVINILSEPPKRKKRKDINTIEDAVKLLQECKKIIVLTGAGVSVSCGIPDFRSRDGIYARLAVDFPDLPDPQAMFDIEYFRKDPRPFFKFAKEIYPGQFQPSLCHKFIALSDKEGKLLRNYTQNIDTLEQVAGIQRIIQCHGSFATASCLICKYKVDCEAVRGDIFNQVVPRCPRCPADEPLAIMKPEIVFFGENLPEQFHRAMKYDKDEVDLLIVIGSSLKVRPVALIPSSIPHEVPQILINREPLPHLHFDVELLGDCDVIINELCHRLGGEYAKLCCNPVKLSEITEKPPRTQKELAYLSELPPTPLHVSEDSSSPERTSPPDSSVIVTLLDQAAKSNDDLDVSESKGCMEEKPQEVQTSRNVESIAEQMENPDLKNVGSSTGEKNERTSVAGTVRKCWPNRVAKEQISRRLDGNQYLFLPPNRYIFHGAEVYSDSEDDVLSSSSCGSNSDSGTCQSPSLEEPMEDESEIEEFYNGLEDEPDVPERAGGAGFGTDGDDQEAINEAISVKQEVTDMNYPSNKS
Nature of the data set: Activation of SIRT1.

The target of data set [2] is T2, NAD-dependent protein deacetylase sirtuin-1 (Homo sapiens) (UniProt Q96EB6).
T2 sequence (whole entry): T1 sequence (Q96EB6 whole entry)
Kind of data set: Activation of SIRT1 relative to control.

Data set [3] deals with Mus musculus. Nature of the data set: Increase of SIRT1 mRNA expression in mouse brain at 12.5 mg/kg qd for 7 days by RT-PCR analysis. Format: functional.
The test system of data set [4] is Mus musculus. Nature of the data set: Increase of SIRT1 mRNA expression in mouse brain at 25 mg/kg qd for 7 days by RT-PCR analysis. Format: functional.
In data set [5] the test system is Mus musculus. Nature of the data set: Increase of SIRT1 mRNA expression in mouse soleus muscle at 12.5 to 25 mg/kg qd for 7 days by RT-PCR analysis. Format: functional. The settings on record: dose mg/kg 12.5-25.
A short description of data set [6]: Half life in mouse. Format: ADME, organism-based. The settings on record: in vivo.
In data set [7] the target is T1, NAD-dependent protein deacetylase sirtuin-1. Kind of data set: Inhibition of SIRT1.
Data set [8] addresses T3, NAD-dependent protein deacetylase sirtuin-2 (Homo sapiens, UniProt Q8IXJ6).
T3 sequence (Q8IXJ6 whole entry): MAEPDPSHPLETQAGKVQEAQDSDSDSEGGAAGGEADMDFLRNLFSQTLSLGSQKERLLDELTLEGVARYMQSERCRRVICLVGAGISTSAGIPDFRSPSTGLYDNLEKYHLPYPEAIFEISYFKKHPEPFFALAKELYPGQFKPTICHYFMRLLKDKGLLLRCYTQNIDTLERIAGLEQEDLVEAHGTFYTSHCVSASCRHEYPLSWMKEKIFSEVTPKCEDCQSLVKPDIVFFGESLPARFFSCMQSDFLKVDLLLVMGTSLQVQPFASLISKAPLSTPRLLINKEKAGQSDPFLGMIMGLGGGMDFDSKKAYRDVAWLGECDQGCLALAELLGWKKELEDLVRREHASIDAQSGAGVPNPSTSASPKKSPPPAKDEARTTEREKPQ
Kind of data set: Inhibition of SIRT2.

The target in data set [9] is T4, NAD-dependent protein deacetylase sirtuin-3, mitochondrial (Homo sapiens, UniProt Q9NTG7).
T4 sequence (Q9NTG7 whole entry): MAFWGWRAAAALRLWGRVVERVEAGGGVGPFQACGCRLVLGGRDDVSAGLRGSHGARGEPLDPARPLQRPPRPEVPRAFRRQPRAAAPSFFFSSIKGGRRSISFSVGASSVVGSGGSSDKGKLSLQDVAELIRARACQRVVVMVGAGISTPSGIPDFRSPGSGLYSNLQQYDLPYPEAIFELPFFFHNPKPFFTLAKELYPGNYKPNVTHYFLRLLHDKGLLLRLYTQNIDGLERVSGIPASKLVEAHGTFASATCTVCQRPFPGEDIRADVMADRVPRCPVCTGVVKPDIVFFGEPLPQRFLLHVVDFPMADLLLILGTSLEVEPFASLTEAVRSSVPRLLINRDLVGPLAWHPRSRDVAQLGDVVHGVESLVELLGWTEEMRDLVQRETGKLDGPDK
Kind of data set: Inhibition of SIRT3.

Bounds are passed on as bounds.

What is called EC50 is the concentration at which the effect is half-maximal. Lower therefore signals an effect from little substance. In general, Emax refers to the greatest response seen or fitted, relative to the assay's reference. The compound `COc1ccc(C(=O)Nc2cccc(-c3nc4ncccc4o3)c2)cc1OC` yielded a half-maximal effective concentration (EC50) in data set [1] of 6 µM. The Emax in data set [2] was 240%.

On to `O=C(Nc1ccccc1-c1nc2cccnc2s1)c1cc(NC[C@@H](O)CO)nc(-c2ccccc2)n1`, for which the EC50 in [1] is < 0.25 µM.

`O=c1c(O)c(-c2ccc(O)c(O)c2)oc2cc(O)cc(O)c12` [QUERCETIN]: the Activity is given as 50% with Mus musculus [3], 100% in the data set with Mus musculus [4] and 200% with Mus musculus [5].

With `O=C(Nc1ccc(CN2CCNCC2)cc1-c1nc2ccccc2[nH]1)c1cnc2ccccc2n1`, the EC50 in data set [1] turned out to be 0.4 µM. Further, the maximum response (Emax) in [2] worked out at 820%.

Broadly, the half-life is the time in which the quantity being followed falls by half. A lower half-life goes with fast loss. `NC(=O)C1CCCc2c1[nH]c1ccc(Cl)cc21` (configuration not stated): in [6], the half-life is 3.23 h.

In general, IC50 refers to the concentration that gives 50% inhibition. Read a high IC50 as weaker potency. As to `O=C1c2cccc3cccc(c23)C(=O)N1CCNCCCNCCCNCCN1C(=O)c2cccc3cccc(c23)C1=O`, in data set [7], inhibition was half-maximal at 43 µM (IC50).

`NC(=O)c1ccccc1Nc1ccccc1` [ANILINOBENZAMIDE] came in with an IC50 in data set [7] of 17 µM.

In the case of `COc1ccc(C(=O)Nc2ccccc2-c2nc3ncccc3o2)cc1OC`, the half-maximal effective concentration (EC50) in data set [1] was found to be 0.9 µM. The same compound returned an Emax in [2] of 170%.

Consider `Cc1ccc2[nH]c(=O)c(C=C3C(=O)NC(=S)NC3=O)cc2c1`, for which the 50% inhibitory concentration (IC50) amounted to 11 µM in [8] and 13 µM in data set [7].

In turn, `CN(C)c1cccc(C(=O)Nc2ccccc2-c2nc3ncccc3o2)c1` had a concentration giving a half-maximal response (EC50) in data set [1] of 4.4 µM. This compound also registered an Emax in [2] of 209%.

Compound `CN(C)c1cccc(C(=O)Nc2cccc(-c3nc4ncccc4o3)c2)c1` displayed an EC50 in data set [1] of 25 µM. This compound also gave an Emax in data set [2] of 207%.

As to `O=C(Nc1ccccc1-c1nc2cccnc2s1)c1cc(N2CCNCC2)nc(-c2ccccc2)n1`, the concentration for a half-maximal effect (EC50) in data set [1] was < 0.25 µM.

On to `O=C1NC(=S)NC(=O)C1=Cc1cc2ccccc2[nH]1`, for which the IC50 in data set [8] is 20 µM; in data set [7], 6 µM.

Consider `CCOC(=O)CC(=O)NCCCC[C@H](NC(=O)OCc1ccccc1)C(=O)Nc1ccccc1`, for which the results for the 50% inhibitory concentration (IC50) in [8], in [9] and in data set [7] were 65 µM, > 300 µM and 4 µM, respectively.

Regarding `Cc1ccc(C(=O)Nc2ccc(S(=O)(=O)O)c3cc(S(=O)(=O)O)cc(S(=O)(=O)O)c23)cc1NC(=O)c1cccc(NC(=O)Nc2cccc(C(=O)Nc3cc(C(=O)Nc4ccc(S(=O)(=O)O)c5cc(S(=O)(=O)O)cc(S(=O)(=O)O)c45)ccc3C)c2)c1` [SURAMIN HEXASODIUM], in data set [8], inhibition was half-maximal at 1.2 µM (IC50).

`O=c1[nH]c(=S)[nH]c(-c2ccc(Br)cc2)c1Cc1c(O)ccc2ccccc12` returned a half-inhibitory concentration (IC50) in data set [7] of 13 µM.

Turning to `O=C1Nc2c(ccc(Cl)c2Cl)/C1=C/c1cc(Br)c(O)c(Br)c1`, the IC50 stood at 28 µM in data set [8] and 40 µM in data set [7].

The compound `O=C(Nc1ccccc1-c1nc2ccccc2[nH]1)c1cnc2ccccc2n1` had a concentration giving a half-maximal response (EC50) in [1] of 0.3 µM. Besides, in [2], the maximal effect (Emax) was 253%.

In the case of `O=C(Nc1ccccc1-c1nc2cccnc2s1)c1cc(N2CCOCC2)nc(-c2ccccc2)n1`, the EC50 in data set [1] is < 0.25 µM.

Consider `O=C(Nc1nccs1)c1cccc2[nH]c(-c3cccc(C(F)(F)F)c3)nc12`, for which, in data set [1], the concentration for a half-maximal effect (EC50) was < 1 µM. The Emax in [2] was > 200%.

Turning to `CC(=S)NCCCC[C@H](NC(=O)OCc1ccccc1)C(=O)Nc1ccccc1`, in data set [9], the IC50 is > 100 µM.

For `O=C1NC(=S)NC(=O)C1=Cc1cccc2ccccc12`, the IC50 in data set [8] stood at 9 µM; in data set [7], 13 µM.

The values are drawn from ChEMBL document CHEMBL2169871, “SIRT1 modulation as a novel approach to the treatment of diseases of aging” (J Med Chem, 2011).
